The subject of one assay is MOLM-16 cells. Nature of the assay: CTG viability assay, MOLM-16 sgControl and sgGCN2 cells. In kind it is cell-based, human. The settings on record: 24 or 48 hr. On the procedure:
MOLM-16 cells were obtained from DSMZ (#ACC 555) and were cultured in RPMI 1640 (Gibco, #11875119) with 20% FBS (Invitrogen, #10099141C) at 37° C. and 5% CO2. MOLM-16 GCN2 CRISPR knockout cells (sgGCN2) were generated and compared to control cells (sgControl). For viability experiments, cells were plated in 384-well cell culture plates and incubated overnight. Compounds were diluted in 8 concentrations by 3-fold dilution in 384pp-plate using TECAN EVO200 to a final concentration ranging from […]. The plates were incubated for 24 or 48 hr and viability was assessed by adding CellTiter-Glo® 2.0 Assay according to the manufacturer's protocol (Promega, G9243) to each well. The plates were then incubated at RT for 30 min. The luminescent signals were read by Envision (PerkinElmer) plate reader and analyzed by Prism.

Assay [1] relates to GCN2 pathway (p-GCN2, ATF4) in HT1080 cells. Nature of the assay: Western blot analysis of HT1080 cell lysates. The class given is cell-based, human. The settings on record: FIG. 5. On the procedure: The HT1080 cells were harvested and counted and diluted to the desired density. 2 mL of cell suspension was added into each well of 6-well cell culture plate. The plates were transferred into 37° C., 5% CO2 incubator overnight. The cells were treated as described above. The media was aspirated, and cells were washed with ice cold phosphate buffered saline (PBS). Ice cold 1× radioimmunoprecipitation assay (RIPA) lysis buffer supplemented with protease and phosphatase inhibitors was added to the cell pellets, on ice. After 30 min on ice the cell lysates were centrifuged at 4° C., 12,000 rpm for 15 minutes and the supernatant collected. Protein concentration was determined using BCA kit. The cell lysates were mixed with 5× sodium dodecyl sulfate (SDS) loading buffer and denatured at 95° C. for 5 minutes. […] After the electrophoresis was completed, the separated protein was transferred to a nitrocellulose membrane using transblot system for 90 min, 300 mA, then the membrane was blocked with (tris-buffered saline) TBS buffer (5% bovine serum albumin (BSA)) for 1 hr at room temperature. The membrane was exposed to the primary antibodies overnight in cold room in TBS buffer (1% BSA). The membrane was then washed with TBS-Tween for 3×10 min at R/T, incubated with secondary antibodies in TBS buffer (1% BSA) for 1 hr at RT. The membrane was washed with TBS-Tween for 3×10 min at R/T and the imaging was acquired with Li—COR imaging system.

In assay [2] the test system is 786-O (human renal cell carcinoma cancer cells). Nature of the assay: In vivo tumor growth inhibition, 786-O xenograft. Also on record: species or system BALB/c nude mice. The settings on record: HC-7366 single agent, 3 mg/kg twice daily (FIG. 58). On the procedure:
786-O (human renal cell carcinoma cancer cells): Female 6-8 weeks old BALB/c nude mice were inoculated subcutaneously on the right flank with 786-O tumor cells (5×10^6) in 0.1 ml of RPMI1640 medium without serum for tumor development. […] For the DC101 combination study, DC101 (murine monoclonal anti-VEGFR2 antibody) was dosed at 15 mg/kg twice a week by intraperitoneal injection.
(§1) [formula] • 2.2.2 Tumor Measurements: The measurement of tumor size was conducted three times weekly with a caliper and recorded. The tumor volume (mm^3) was estimated using the formula: TV=a×b^2/2, where “a” and “b” is long and short diameters of a tumor, respectively. Tumor volume was calculated using the formula [tumor volume (mm^3)=π/6×length×width^2).
(§2) Regression was calculated using the formula=100×ΔT/T initial, if ΔT<0. Animals with 0 mm^3 tumor volume (no measurable tumor) for three consecutive measurements were considered as complete responders and animals with 50% tumor regressions were partial responders.
Female 6-8 weeks old BALB/c nude mice were inoculated subcutaneously on the right flank with 786-O tumor cells (5×10^6) in 0.1 ml of RPMI1640 medium without serum for tumor development (see Example 6). […]

Assay [3] has as its system Kasumi-1 (human AML cancer cells). The assay can be described thus: In vivo tumor growth inhibition, Kasumi-1 xenograft. Also on record: species or system CB17 SCID mice. As for the experimental part:
Kasumi-1 (human AML cancer cells): Female 6-8 weeks old CB17 SCID mice were inoculated subcutaneously on the right flank with […] tumor cells (1×10^7) in RPMI 1640 without serum for tumor development. The treatments were started when the mean tumor size reached approximately 151 mm^3 at Day 29 after cell inoculation and continued until end of study by twice daily oral gavage dosing of HC-7366 at listed doses (vehicle, 3 mg/kg HC-7366, or 30 mg/kg HC-7366, FIG. 18).
as §1, §2

A further assay has as its system MOLM-16 xenograft tumors. Nature of the assay: Metabolomic analysis of MOLM-16 xenograft tumors. In kind it is in vivo, mice. The settings on record: four days. As for the experimental part: MOLM-16 xenograft tumors were treated with Vehicle or HC-7366 (0.3, 1, 3, 10 or 30 mg/kg) for four days, and snap frozen tumors were collected for metabolomic analysis (n=12). Metabolic analysis was performed at Metabolon on the LC/MS/MS and Polar LC platforms. Data was normalized to Vehicle group and Welch's two-sample t-test was performed for statistical analysis. Heat maps show metabolite levels normalized to vehicle control (FIGS. 90, 94, 102, and 107).

Assay [4] deals with FaDu (human head and neck cancer cells). The assay can be described thus: In vivo tumor growth inhibition, FaDu xenograft. Details: species or system BALB/c nude mice. On the procedure:
FaDu (human head and neck cancer cells): Female 6-8 weeks old BALB/c nude mice were inoculated subcutaneously on the right flank with FaDu tumor cells (5×10^6) in 0.1 ml of EMEM medium without serum for tumor development. The treatments were started when the mean tumor size reached approximately 194 mm^3 at Day 21 post inoculation and continued until end of study by twice daily oral gavage dosing of HC-7366 at listed doses (vehicle, 0.3 mg/kg HC-7366, 1 mg/kg HC-7366, 3 mg/kg HC-7366, 10 mg/kg HC-7366, or 30 mg/kg HC-7366, FIG. 11-13).
as §1, §2

`CNC(=O)c1ncn2cc(-c3c(F)ccc(NS(=O)(=O)c4cc(Cl)cnc4OC)c3F)ncc12` [HC-7366, 6-(3-((5-chloro-2-methoxypyridine)-3-sulfonamido)-2,6-difluorophenyl)-N-methylimidazo[1,5-a]pyrazine-1-carboxamide]: in the assay on MOLM-16 cells (GCN2 CRISPR knockout cells), the viability response result is listed as “reversed”. For the same compound, in the assay on MOLM-16 cells (GCN2 wild-type (sgControl), lower concentrations, U-shaped manner), the viability entry is given as “potently reduced viability”. The “GCN2 pathway, HC-7366 by itself” value in assay [1] (0 to 10 μM) was “activation of GCN2 pathway”. Besides, the “halofuginone induced p-GCN2 and ATF4” value in assay [1] (100 nM Halofuginone) is reported as “inhibited”. Further, in assay [2], the TGI % is ~78%. Moreover, the TGI in assay [3] (3 mg/kg twice daily oral) is given as 73%. This compound yielded a TGI in assay [3] (30 mg/kg twice daily oral) of 77%. Moreover, in the assay on MOLM-16 xenograft tumors (0.3-30 mg/kg), the “aspartate and cysteine levels” value is on record as “decreased”; the “glutathione levels (GSH and GSSG)” value is recorded as “significantly reduced”; the “levels of most amino acids” value is recorded as “significantly elevated”; the “metabolites involved in pyrimidine synthesis” value was “significantly reduced”. For the same compound, the γ-glutamyl-amino acids entry in the assay on MOLM-16 xenograft tumors (0.3-30 mg/kg) is “enhanced”. Moreover, the “aspartate metabolism and polyamine-related metabolites (putrescine, spermine, MTA)” value in the assay on MOLM-16 xenograft tumors (all doses) was “significantly reduced”. The compound also came in with a tumor regression in assay [4] (1 mg/kg twice daily oral) of 33%. Besides, the TGI result in assay [4] (all doses) was “significant TGI”.

The values above are taken from US20250339426A1, “GCN2 MODULATOR FOR TREATING CANCER” (HIBERCELL, INC., priority 2022, published 2025).
